Data on eight compounds can be found in patent publication US9540362B2, “Sphingosine-1-phosphate receptor agonists, methods of preparing the same, and pharmaceutical compositions containing the same as an active agent” (LG LIFE SCIENCES LTD., priority 2013, dated 2017).

Each structure is given as a SMILES string. Where a name gives a salt, the structure may show the parent alone.

One assay concerns lymphocytes in blood. Description: Rat peripheral blood lymphocyte decrease. The note with it: male SD rat, administered once, 6 hours after administration. Type of assay: in vivo. The method, then: Evaluation of Rat Peripheral Blood Lymphocyte Decrease
Lymphocyte decrease in blood by S1P1 agonist was evaluated using a male SD rat. After adapting a rat weighing about 250 g to a breeding facility for one week, a test compound was administered to it once. At 3 hours, 6 hours, 24 hours and 48 hours after administration, blood was taken from a tail caudal vein, and about 200 μl of the blood was put into an EDTA tube while preventing it from clotting, followed by measurement of the number of lymphocytes in blood. The number of lymphocytes was analyzed by a hematological examination device, Hemoanalyzer. The doses of the test compounds were 3 mg/kg for Example 52, 94, 108, 117, 142, 145, 146, 148 and 149 compounds, and 1 mg/kg for Example 150, 151, 153, 154, 155, 158, 159 and 161 compounds.

Assay [1] concerns the target human sphingosine-1-phosphate 1 receptor (S1P1 receptor) (Homo sapiens, UniProt P21453). Kind of assay: Ca2+ inducing ability using CHO cells overexpressing human S1P1 receptor (Calcium 5 assay kit). It counts as cell-based. The note with it: CHO cells overexpressing human S1P1, calcium RFU; S1P 1 μM = 100%. The text has this:
Evaluation of Ca^2+ inducing ability of test compound using a cell line expressing human sphingosine-1-phosphate
CHO (Chinese hamster ovary) cells which overexpress human sphingosine-1-phosphate 1 receptor (S1P1 receptor) that react with sphingosine-1-phosphate (S1P) are used for a functional test method wherein an increase of calcium indicates a therapeutic efficacy of an agonist compound.
To prepare CHO cells which overexpress human S1P1˜S1P5, human clones for each subtype having HA at the N terminal residue (S1P1: EDG010TN00, S1P2: EDG020TN00, S1P3: EDG030TN00, S1P4: EDG060TN00, S1P5: EDG080TN00) were purchased from the Missouri S&T cDNA Resource Center and co-transfected with G-protein alpha subunit (G-alpha-16) into CHO-K1 cells.
A calcium measurement kit (Calcium 5 assay kit, Molecular Devices) was used to select an agonist compound. The principle of calcium measurement is that calcium-sensitive dyes are applied to cells, they enter into the cytoplasm of the cells during incubation, and when a ligand binds to a certain receptor to release calcium into the cytoplasm, the dyes bind to said calcium to induce fluorescence which is measured. This test method can sensitively measure only the intracellular calcium concentration change because any change that may occur outside the cells is masked by a masking dye.
The experimental procedure was as follows. One day before calcium measurement, CHO cells overexpressing hS1P1˜hS1P5 were dispensed into a 96-well plate (bottom clear black well) in 3×10^4 cells per well and cultured at 37° C. under 5% carbon dioxide condition for one day. 100 μl of calcium dyes mixed with Assay Buffer (1×HBSS, 20 mM HEPES, 2.5 mM probenecid, pH 7.4) were dispensed into culture solution in well and cultured at 37° C. for one hour. Test compounds were dissolved in 100% DMSO to prepare 1 μl solution per each concentration, and each solution was mixed with 199 μl Assay Buffer such that the concentrations were 50, 5, 0.5, 0.05, 0.005 and 0.0005 μM. The plate cultured with the calcium dyes was put into FlaxstationII (Molecular Devices), and the prepared test compounds (the final concentrations of the test compounds: 10, 1, 0.1, 0.01, 0.001 and 0.0001 μM) were programmed to be automatically inoculated in 50 μl per each well. For a total of 90 seconds, RFU (relative fluorescence unit) values were measured. The value of Reference (S1P substance 1 μM) deducting the blank value was set as 100%, and EC50 values of the test compounds were calculated by prism.

Sequence of human sphingosine-1-phosphate 1 receptor (S1P1 receptor) (P21453 whole entry): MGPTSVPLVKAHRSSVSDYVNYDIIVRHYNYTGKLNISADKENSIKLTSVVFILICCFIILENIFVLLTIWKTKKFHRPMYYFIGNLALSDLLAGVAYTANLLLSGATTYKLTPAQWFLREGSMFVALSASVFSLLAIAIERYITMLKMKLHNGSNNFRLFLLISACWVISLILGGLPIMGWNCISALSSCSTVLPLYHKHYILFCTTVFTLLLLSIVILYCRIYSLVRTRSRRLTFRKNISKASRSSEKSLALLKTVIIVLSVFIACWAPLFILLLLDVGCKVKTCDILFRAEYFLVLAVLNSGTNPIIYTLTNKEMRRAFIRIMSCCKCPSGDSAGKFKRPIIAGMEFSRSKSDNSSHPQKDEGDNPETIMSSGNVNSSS

Turning to `CC(C)n1nc(Cl)c2cc(COc3ccc4c(c3)CCC(CN3CCC(F)(C(=O)O)C3)=C4Cl)ccc21` (stereo not shown) [Example 161, 1-[1-chloro-6-(3-chloro-1-isopropyl-1H-indazol-5-ylmethoxy)-3,4-dihydro-naphthalen-2-ylmethyl]-3-fluoro-pyrrolidine-3-carboxylic acid], the “Lymphocyte count (degree of decrease in lymphocyte number)” value in the assay on lymphocytes in blood (1 mg/kg) is −65%. For the same compound, in assay [1], the half-maximal effective concentration (EC50) (as a rule, the concentration at which the effect is half-maximal) is 3 nM.

On to `CC(C)n1nc(Cl)c2cc(COc3ccc4c(c3)CCC(CN3CC[C@@H](C(=O)O)C3)=C4Cl)ccc21` [Example 151, (R)-1-[1-chloro-6-(3-chloro-1-isopropyl-1H-indazol-5-ylmethoxy)-3,4-dihydro-naphthalen-2-ylmethyl]-pyrrolidine-3-carboxylic acid], for which the “Lymphocyte count (degree of decrease in lymphocyte number)” value with lymphocytes in blood (1 mg/kg) is given as −80%. Also, the EC50 in assay [1] stood at 11 nM.

As for `CC(C)n1nc(Cl)c2cc(-c3nc(-c4cccc5c4CCN(S(N)(=O)=O)C5)no3)ccc21` [Example 108, 5-[5-(3-chloro-1-isopropyl-1H-indazol-5-yl)-[1,2,4]oxadiazol-3-yl]-3,4-dihydro-1H-isoquinoline-2-sulfonic acid amide], in the assay on lymphocytes in blood (3 mg/kg), the “Lymphocyte count (degree of decrease in lymphocyte number)” value is on record as −70%. In assay [1], the EC50 came to 20 nM.

On to `CC1=C(CN2CC(C(=O)O)C2)CCc2cc(OCc3ccc4c(c3)c(Cl)nn4C(C)C)ccc21` [Example 146, 1-[6-(3-chloro-1-isopropyl-1H-indazol-5-ylmethoxy)-1-methyl-3,4-dihydro-naphthalen-2-ylmethyl]-azetidine-3-carboxylic acid], for which the “Lymphocyte count (degree of decrease in lymphocyte number)” value in the assay on lymphocytes in blood (3 mg/kg) was −78%. The EC50 in assay [1] came to 5 nM.

In the case of `CC(C)n1nc(Cl)c2cc(COc3ccc4c(c3)CCC(CN3CCCC(F)(C(=O)O)C3)=C4Cl)ccc21` (stereo not shown) [Example 158, 1-[1-chloro-6-(3-chloro-1-isopropyl-1H-indazol-5-ylmethoxy)-3,4-dihydro-naphthalen-2-ylmethyl]-3-fluoro-piperidine-3-carboxylic acid], the “Lymphocyte count (degree of decrease in lymphocyte number)” value in the assay with lymphocytes in blood (1 mg/kg) was −30%. Besides, the EC50 in assay [1] is 14 nM.

Regarding `CC1=C(CN(C)CC(=O)O)CCc2cc(OCc3ccc4c(c3)c(Cl)nn4C(C)C)ccc21` [Example 145, {[6-(3-chloro-1-isopropyl-1H-indazol-5-ylmethoxy)-1-methyl-3,4-dihydro-naphthalen-2-ylmethyl]-methyl-amino}-acetic acid], the “Lymphocyte count (degree of decrease in lymphocyte number)” value in the assay with lymphocytes in blood (3 mg/kg) is given as −48%. Moreover, the EC50 in assay [1] worked out at 9 nM.

Take `CC(C)n1nc(Cl)c2cc(COc3ccc4c(c3)CCC(CN3CCCC(C(=O)O)C3)=C4Cl)ccc21` (stereo not shown) [Example 155, 1-[1-chloro-6-(3-chloro-1-isopropyl-1H-indazol-5-ylmethoxy)-3,4-dihydro-naphthalen-2-ylmethyl]-piperidine-3-carboxylic acid]: in the assay with lymphocytes in blood (1 mg/kg), the “Lymphocyte count (degree of decrease in lymphocyte number)” value is −75%. For the same compound, the EC50 in assay [1] came to 27 nM.

Consider `Cc1c(-c2noc(-c3ccc4c(c3)c(Cl)nn4C(C)C)n2)ccc2c1CCN(CCC(=O)O)C2` [Example 94, 3-{6-[5-(3-chloro-1-isopropyl-1H-indazol-5-yl)-[1,2,4]oxadiazol-3-yl]-5-methyl-3,4-dihydro-1H-isoquinolin-2-yl}-propanoic acid, trifluoroacetate], for which, in the assay on lymphocytes in blood (3 mg/kg), the “Lymphocyte count (degree of decrease in lymphocyte number)” value is −82%. The EC50 in assay [1] amounted to 6 nM.
